Measured values as given in patent publication US7011846B2, “Oral capsule formulation with increased physical stability” (Shire Laboratories, Inc., priority 2001, dated 2006).

Assay: Capsule shell integrity with NMP alone or NMP:stabilizing agent 1:1 (wt/wt), banded capsules, observed for leakage and shell cracking
Type: physicochemical
Conditions: NMP alone filled into size 0 hard gelatin capsule
Method: NMP was filled into a size 0 hard gelatin capsule in order to determine the effect of NMP on the integrity of the shell.
To stabilize the capsule shell in presence of solution of NMP, various capsule stabilizing agents were studied for their stability inducing properties. Stabilizing agents were each incorporated into NMP separately. Formulations were prepared by mixing or dissolving each excipient in a vial containing NMP with a 1:1 ratio (wt/wt). The solutions were then encapsulated into size 0 hard gelatin capsules and banded to prevent leakage of the fill contents. Capsules were stored at ambient environment and observations were made at regular time intervals for leakage and capsule shell cracking.

Compound: CN1CCCC1=O [#1, N-methyl-2-pyrrolidone]
- Effect of NMP on the integrity of the capsule shell: Within minutes, the capsule cracked causing the content to leak out
